From US4883863A, “Tripeptide derivatives and antiplasmin agents containing the same” (Nitto Boseki Co., Ltd., priority 1987, dated 1989) come the findings set out here.

What all share (format): biochemical
The target in one test is T1, trypsin (Bos taurus, UniProt P00760).
T1 construct: purchased Worthington 3703
T1 sequence (P00760 24-246): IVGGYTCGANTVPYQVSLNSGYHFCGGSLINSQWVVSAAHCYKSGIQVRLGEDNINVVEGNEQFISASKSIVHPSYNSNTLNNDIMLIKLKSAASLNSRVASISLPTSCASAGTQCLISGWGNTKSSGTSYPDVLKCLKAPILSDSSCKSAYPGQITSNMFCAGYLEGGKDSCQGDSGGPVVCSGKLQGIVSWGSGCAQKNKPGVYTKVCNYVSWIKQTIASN
Description: Trypsin-inhibiting activity, synthetic substrate PS-915. Particulars: Table 4; PS-915, pH 8.0, 37° C. The source says:
(§1) Synthetic substrates used for testing the inhibitory activity of the inhibitors on decomposition of substrates by the enzymes were as follows. For plasmin, PS-994 (H--D--Lys(Tos)--Phe--Lys--CHA·2HCl, mfd. by NITTO BOSEKI Co., Ltd.) was used; for thrombin and trypsin, PS-915 (H--D--Phe--Pro--Arg--CHA·2HCl, mfd. by NITTO BOSEKI Co., Ltd.); for Factor Xa, PS-2000 (Z--D--Lys--(HCO)--Gly--Arg--CHA·HCl, mfd. by NITTO BOSEKI Co., Ltd.); and for kallikrein, S-2302 (H--D--Pro--Phe--Arg--pNA, mfd., by Kabi Co., Ltd.).
(§2) As plasmin, standard plasmin of Sankyo Color Test α2 -D1 Kit was used in an amount of 0.3CU/ml. As thrombin, that of Sankyo Color Test ATIII kit was used in an amount of 1.2 NIHU/ml. As trypsin, that of cord 3703 of Worthington was used in an amount of 2 μg/ml. As human Factor Xa, that of Boehringer Manheim Co., Ltd. was used in an amount of 0.25 U/ml. As human plasma kallikrein, that of Kabi Co., Ltd. was used in an amount of 0.12 U/ml. As terminating color reagents, those for Sankyo Color Test Kit were used. The reactions were carried out at 37° C. unless otherwise specified.
Each of aqueous solutions (0.1 ml) of the inhibitors which solutions were various in their respective concentrations was added to 0.5 ml of a buffer solution (a 150 mM aqueous sodium chloride solution containing 150 mM Tris, pH 8.0), and the resulting solution was heated for 5 minutes. Then, 0.1 ml of a trypsin solution was added, followed by incubation for 5 minutes. Subsequently, 0.1 ml of a PS-915 solution (10 mM) was added, followed by incubation for 5 minutes. Thereafter, 2 ml of terminating color reagent [containing […] of soybean trypsin inhibitor (No. T-9003, available from Sigma Chemical Co.)] was added. After standing for 10 minutes, absorbance at 700 nm was measured and IC50 was determined in the manner described above.

Test [1] has as its target T2, plasmin (Homo sapiens, UniProt P00747). Description: Plasmin-inhibiting activity, synthetic substrate PS-994. Further details: purchased Sankyo (Color Test α2 -D1 Kit). Particulars: Table 4; PS-994, pH 7.8, 37° C.
Source text: as §1, §2
Target sequence in this assay (P00747 581-810 limits assumed, species assumed): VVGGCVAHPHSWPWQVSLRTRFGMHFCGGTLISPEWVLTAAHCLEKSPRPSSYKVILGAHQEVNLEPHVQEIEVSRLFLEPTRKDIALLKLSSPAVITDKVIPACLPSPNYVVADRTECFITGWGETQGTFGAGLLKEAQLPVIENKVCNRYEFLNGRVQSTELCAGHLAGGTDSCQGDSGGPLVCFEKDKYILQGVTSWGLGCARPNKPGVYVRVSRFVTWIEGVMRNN
Target sequence in this assay (P00747 97-580 partner limits assumed, species assumed): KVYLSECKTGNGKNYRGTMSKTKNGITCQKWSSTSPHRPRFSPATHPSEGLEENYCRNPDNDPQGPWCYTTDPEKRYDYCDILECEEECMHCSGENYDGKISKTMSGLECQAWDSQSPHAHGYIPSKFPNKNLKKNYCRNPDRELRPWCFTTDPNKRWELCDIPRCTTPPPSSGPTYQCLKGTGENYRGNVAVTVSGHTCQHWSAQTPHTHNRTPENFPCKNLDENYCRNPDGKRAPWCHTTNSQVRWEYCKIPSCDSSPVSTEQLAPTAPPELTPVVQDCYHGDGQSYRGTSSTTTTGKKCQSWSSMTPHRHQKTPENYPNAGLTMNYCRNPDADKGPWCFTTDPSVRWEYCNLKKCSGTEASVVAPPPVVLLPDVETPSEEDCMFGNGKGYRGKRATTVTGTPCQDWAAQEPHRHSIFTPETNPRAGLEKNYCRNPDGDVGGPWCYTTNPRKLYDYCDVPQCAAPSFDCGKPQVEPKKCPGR
Each of aqueous solutions (0.1 ml) of the inhibitors which solutions were various in their respective concentrations was added to 0.4 ml of a buffer solution (a 150 mM aqueous sodium chloride solution containing 100 mM Tris, pH 7.8), and the resulting solution was heated for 5 minutes. To this solution was added 0.2 ml of plasmin solution, followed by incubation for 5 minutes, and then 0.1 ml of a PS-994 solution (10 mM) was added, and then incubated for 5 minutes. After completion of the reaction, 2.0 ml of terminating color reagent was added, and after standing for 10 minutes, absorbance at 700 nm was measured. A concentration of the inhibitor in the reaction system at which the absorbance was one-half that obtained in the absence of the inhibitor was determined as IC50.

The next test addresses T3, thrombin (Homo sapiens, UniProt P00734).
T3 construct: purchased Sankyo (Color Test ATIII kit)
Description: Thrombin-inhibiting activity, synthetic substrate PS-915. Particulars: Table 4; PS-915, pH 8.5, 37° C.
Source text: as §1, §2
Each of aqueous solutions (0.1 ml) of the inhibitors which solutions were various in their respective concentrations was added to 0.4 ml of a buffer solution (a 150 mM aqueous sodium chloride solution containing 150 mM Tris, pH 8.5), and the resulting solution was heated for 5 minutes. To this solution was added 0.2 ml of thrombin solution, followed by incubation for 5 minutes. Then, 0.1 ml of a PS-915 solution (10 mM) was added, followed by incubation for 5 minutes. Thereafter, 2 ml of terminating color reagent was added. After standing for 10 minutes, absorbance at 700 nm was measured, and IC50 was determined in the manner described above.

The target in test [2] is T2, plasmin. Description: Inhibitory activity on fibrin decomposition by plasmin (natural substrate). Particulars: Table 4; concentration doubling time for complete dissolution, 25° C. Further details: Standard human serum (0.1 ml); from tissue. As to the method:
The determination was carried out by the method of Okamoto et al. (see Keio Journal of Medicine, vol. 11, p. 105 (1962).
Standard human serum (0.1 ml), 0.4 ml of each of 1/20 M potassium phosphate sodium physiological salt buffer solutions (pH 7.4) containing various concentrations of each inhibitor, and 0.1 ml of a solution of streptokinase in physiological saline (1000 U/ml) were stirred and then cooled at 0° C. for 10 minutes. Thereto was added 0.05 ml of a solution of thrombin in physiological saline (100 NIHU/ml, mfd. by Parke Davis Co. Ltd.) at 0° C. After standing for 1 minute, 0.3 ml of a 0.33% solution of bovine fibrinogen (F-4753, available from Sigma Chemical Co.) in physiological saline was added, and the resulting mixture was allowed to stand at 25° C. The solubility was measured every minute by the standard of judgement of Nakamura (see Allergy, vol. 5, p. 1 (1956)) and the time required for complete dissolution was determined. A concentration of the inhibitor at which said time is twice that required in the absence of the inhibitor was determined as IC50.
Target sequence in this assay (P00747 581-810 limits assumed): as the sequence (P00747 581-810 limits assumed, species assumed) above
Target sequence in this assay (P00747 97-580 partner limits assumed): as the sequence (P00747 97-580 partner limits assumed, species assumed) above

The target of a further test is T4, human plasma kallikrein (Homo sapiens, UniProt P03952).
T4 construct: purchased Kabi Co., Ltd
Description: Kallikrein-inhibiting activity, synthetic substrate S-2302. Particulars: Table 4; S-2302, pH 8.0, 37° C.
Source text: as §1, §2
Each of aqueous solutions (0.1 ml) of the inhibitors which solutions were various in their respective concentrations was added to 0.4 ml of a buffer solution (a 150 mM aqueous sodium chloride solution containing 50 mM Tris, pH 8.0), and the resulting mixture was heated for 5 minutes. Then, 0.1 ml of a kallikrein solution [containing 0.5% bovine serum albumin (No. A8022 available from Sigma Chemical Co.)] was added, followed by incubation for 5 minutes. Subsequently, a 10 mM S-2302 aqueous solution (0.1 ml) was added. The reaction was terminated by addition of a 20% aqueous acetic acid solution. Absorbance at 405 nm was measured and IC50 was measured in the manner described above.

Counter-ions that a name gives are not always drawn. Where a SMILES comes first, the peptide text is derived from it. [ ]: non-standard residue; d: D form. The star is where a group is joined. Tos = Cc1ccc(S(=O)(=O)*)cc1; Moc = COC(=O)*; For = O=C*

By IC50 is commonly meant the concentration that inhibits the measured activity by half. A lower IC50 goes with greater potency.

T4 sequence (P03952 391-638 limits assumed): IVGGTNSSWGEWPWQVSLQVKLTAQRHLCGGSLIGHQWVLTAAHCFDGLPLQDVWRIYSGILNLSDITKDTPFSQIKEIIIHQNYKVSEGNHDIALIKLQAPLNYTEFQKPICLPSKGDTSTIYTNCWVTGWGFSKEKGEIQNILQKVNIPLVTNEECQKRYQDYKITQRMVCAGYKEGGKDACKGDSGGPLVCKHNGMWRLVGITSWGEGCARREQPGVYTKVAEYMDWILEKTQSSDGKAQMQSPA
T4 sequence (P03952 20-390 partner limits assumed): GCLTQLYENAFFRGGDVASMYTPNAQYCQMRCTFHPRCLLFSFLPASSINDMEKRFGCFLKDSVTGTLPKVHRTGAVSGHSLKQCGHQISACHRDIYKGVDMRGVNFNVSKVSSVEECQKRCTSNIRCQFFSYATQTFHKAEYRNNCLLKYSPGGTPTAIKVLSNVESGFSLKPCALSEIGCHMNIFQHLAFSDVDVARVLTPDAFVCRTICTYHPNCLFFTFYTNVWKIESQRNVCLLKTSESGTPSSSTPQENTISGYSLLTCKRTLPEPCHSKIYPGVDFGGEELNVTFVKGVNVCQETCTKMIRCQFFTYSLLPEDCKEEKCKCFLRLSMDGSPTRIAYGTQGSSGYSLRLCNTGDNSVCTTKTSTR

As to `COC(=O)N[C@H](CCCCNS(=O)(=O)c1ccc(C)cc1)C(=O)N[C@@H](Cc1ccccc1)C(=O)N[C@H](C=O)CCCCN` [Compound 2, N-α-Methoxycarbonyl-N-ε-(p-tosyl)-D-lysyl-L-phenylalanyl-L-lysinal hydrochloride] (Moc-[dK](Tos)-Phe-Lys-aldehyde), the 50% inhibitory concentration (IC50) at trypsin was 2.5 µM; against plasmin [1], 0.0079 µM; against thrombin, > 1000 µM; at plasmin [2], 0.23 µM; at human plasma kallikrein, 0.36 µM.
For `Cc1ccc(S(=O)(=O)NCCCC[C@@H](NC=O)C(=O)N[C@@H](Cc2ccccc2)C(=O)N[C@H](C=O)CCCCN)cc1` [Compound 4, N-α-Formyl-N-ε-(p-tosyl)-D-lysyl-L-phenylalanyl-L-lysinal hydrochloride] (For-[dK](Tos)-Phe-Lys-aldehyde), the IC50 is 7.8 µM against trypsin; 0.096 µM against plasmin [1]; > 1000 µM against thrombin; 0.24 µM against plasmin [2]; 1 µM against human plasma kallikrein.
